# “And” between values parts separate entries of the source, which are not always exact repeats. Equal values may be shown once. The source made the active and inactive calls.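 The calls were made as follows: active = compounds giving half or more protection of infected cells from virus-caused growth loss, again on retest; inactive = the rest.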
# Test system: CEM cells HIV-1 protection, formazan growth assay
# Test: NCI AIDS Antiviral Assay
# Conditions: for IC50: measured here: growth of uninfected CEM cells
# Method in brief: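 CEM (human) cells, HIV-1 infected vs uninfected, 5-point dosing, formazan growth read-out. Retest threshold 50% protection.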
SMILES,EC50,IC50,outcome
Cc1ccc2nnc(NS(=O)(=O)c3cc(C)c(Cl)cc3S)n2n1,> 200 µM,> 200 µM,
Cc1cc(N=C2C=C(Br)C(=O)C(Br)=C2)cc(CN(CC(=O)O)CC(=O)O)c1O,> 45.7 µM,0.501 µM,
O=C(O)c1cc[c]([Sb](=[O])([OH])[OH])cc1[N+](=O)[O-],10.2 µM,398 µM,
C=C[C@@H]1OC(=O)O[C@H]1CO,> 200 µM,> 200 µM,
O=C1OC2(c3ccc(O)cc3Oc3cc(O)ccc32)c2c1c(-c1ccccc1)c(-c1ccccc1)c(-c1ccccc1)c2-c1ccccc1,10 µM,16.6 µM,
O=C(Nc1cccc(C(=O)Nc2ccc(C3=NCCN3)cc2)c1)c1ccc(C2=NCCN2)cc1,9.12 µM,155 µM,
Cc1ccccc1NC(=O)C(=O)Cc1nc2ccccc2s1,> 12 µM,> 12 µM,
Clc1ccc(OCc2nnc3n2N=C(c2ccc(Br)cc2)CS3)cc1,,,inactive
OCC1CC(F)C(n2cnc3c(F)ncnc32)O1 (stereo not drawn),> 49 µM,36.3 µM,
CCOC(=O)c1cc2c(nc1NCc1ccccc1)C(=O)CCCC2,> 200 µM,19.1 µM,
Cc1cc2ccc([N+](=O)[O-])cn2c1,> 200 µM,115 µM,
CC(=O)OC1c2ccccc2CCCCCCC12OCCO2 (stereo not drawn),> 200 µM,105 µM,
O=C1C2=C(c3ccccc31)C(c1ccc([N+](=O)[O-])cc1)NC(=S)N2 (stereo not drawn),> 138 µM,28.2 µM,
CCOC(=O)c1cc(C)nc2c1c(=O)n(-c1ccccc1)c(=O)n2CCCCN1CCN(c2ncccn2)CC1,> 200 µM,107 µM,
Brc1ccc(-c2cc(-c3ccc4c(c3)OCO4)c(-c3cccs3)n2Cc2ccccc2)cc1,> 200 µM,> 200 µM,
COC(=O)C(Cc1c[nH]c2ccccc12)NP(=O)(O)OCC1OC(n2cc(Br)c(=O)[nH]c2=O)CC1O (stereo not drawn),> 200 µM,> 200 µM,
O=C1C2CCCCC2C(=O)N1n1c(Cc2ccccc2)n[nH]c1=O (stereo not drawn),> 200 µM,> 200 µM,
CC(NNC(=S)N1CCN(c2ccccn2)CC1)c1cccc[n+]1[O-] (stereo not drawn),> 67.6 µM,0.195 µM,
Clc1cccc(-c2sc(-c3cccs3)cc2Cc2cccs2)c1,> 200 µM,141 µM,
O=C(O)CC1NC(/C(=C/c2ccccc2)NC(=O)c2ccccc2)OC1=O (stereo not drawn),> 200 µM,9.12 µM,
c1ccc2c(c1)SCCc1nncn1-2,> 437 µM,> 437 µM,
OCC1OC(n2ccc3c2ncn2cnnc32)C(O)C1O (stereo not drawn),> 309 µM,29.5 µM,

SMILES,EC50,IC50,outcome
CN1CN(c2ccccc2)C2(CCN(CCC3COc4ccccc4O3)CC2)C1=O (stereo not drawn),> 200 µM,30.9 µM,
COc1cc2oc3c(C)c(=O)cc4oc(-c5ccccc5)cc(c2c2c1CCC(c1ccccc1)O2)c43 (stereo not drawn),> 4.07 µM,> 4.07 µM,
Cc1ccc2c(c1)C(=O)C1(C2)Cc2c(C)cccc2C1=O (stereo not drawn),> 200 µM,> 200 µM,
Cc1ccc([N+](=O)[O-])cc1/C(C#N)=C/c1ccccc1,> 200 µM,33.1 µM,
COc1ccc(C=NC23CC4CC(CC(C4)C2)C3)cc1,> 95.5 µM,> 95.5 µM,
CCNC(=O)CCN(C(=O)O)S(=O)(=O)c1ccc(NC(=O)c2ccccc2)cc1,> 603 µM,> 603 µM,
Cc1cc(NS(=O)(=O)c2ccc(Nc3c4ccccc4nc4c(C(=O)Nc5ccc(S(=O)(=O)O)cc5)cccc34)cc2)no1,123 µM,> 200 µM,
O=C(Nc1ccc(S(=O)(=O)Nc2nccs2)cc1)c1cccnc1Nc1cccc(Cl)c1,,,inactive
Cn1c2ccccc2c2c(-c3ccccc3)cc3c(c21)C(=O)C=CC3=O,> 100 µM,5.5 µM,
CCOP(=O)(OCC)/C(C#N)=C/c1cccc([N+](=O)[O-])c1,> 813 µM,166 µM,
CC(C)n1c(=O)n(-c2ccccc2)n(C(C)(C)C)c1=O,> 200 µM,> 100 µM,
CC(O)[C@@]1(c2ccccc2)CC2(CCN(C)CC2)O[C@H]1C (stereo partly drawn),> 200 µM,> 200 µM,
COc1ccc(/C(C#N)=C/c2cc(OC)c(OC)c(OC)c2)cc1,> 200 µM,5.75 µM,
CCOC1N(C2C=CC(CO)O2)C(=O)NC(=O)C1(C)Br (stereo not drawn),> 13.5 µM,> 13.5 µM,
CC(=O)c1cccc(N2COC(C)(C)c3nc4ccccc4n3C2)c1,> 200 µM,107 µM,
O=C(Nc1ccc([N+](=O)[O-])cc1)C1C(=O)C(=O)N(c2ccc([N+](=O)[O-])cc2)C1=O (stereo not drawn),> 234 µM,> 234 µM,
CC1=NN(c2ccccc2)C(=O)C1N=Nc1ccc(S(N)(=O)=O)cc1 (stereo not drawn),,,inactive
COCCn1cnc2c(Cl)nc(Nc3ccccc3)nc21,> 200 µM,28.8 µM,
COc1cc(C2=C(c3cc(OC)c4ccccc4c3OC)C(=O)c3ccccc3C2=O)c(OC)c2ccccc12,> 100 µM,> 100 µM,
Cc1cccc2[s+]snc12,> 245 µM,75.9 µM,
COc1cc2c(cc1OC)C1c3ccccc3CCCN1CC2 (stereo not drawn),> 200 µM,123 µM,
CCOC1(NC(=O)N(C)C)C2CCCCC21 (stereo not drawn),> 200 µM,> 200 µM,

SMILES,EC50,IC50,outcome
Cc1ccc(C)c(C2=C/C(=C/c3ccc(N(CCC#N)CCC#N)cc3)C(=O)O2)c1,> 9.55 µM,> 9.55 µM,
Cc1c(C)c(C)c(-n2c(=O)n(C)c(=O)n2-n2c(=O)n(C)c(=O)n2-c2c(C)c(C)c(C)c(C)c2C)c(C)c1C,> 100 µM,6.31 µM,
Cn1c(=O)n2n(c1=O)C1C=CC2C2C=C(c3ccccc3)C21 (stereo not drawn),,,inactive
C=C1C(=O)OC2C3C(=C)[C@@H](OC(C)=O)CC3C(C)=CC(OC(=O)C(C)(OC(C)=O)C(C)OC(C)=O)[C@@H]12 (stereo partly drawn),> 200 µM,10.2 µM,
Cc1cccc(C=C2C(=O)NC(=O)NC2=O)c1,> 407 µM,> 407 µM,
Clc1ccc(/C=C/c2nc3ccccc3s2)cc1Cl,> 200 µM,83.2 µM,
S=c1[nH]c2ccccc2o1,> 200 µM,166 µM,
COc1cc(OC)c2c(c1)OC1OC(=O)CC21 (stereo not drawn),> 209 µM,> 209 µM,
CC(CCC(=O)O)[C@H]1CCC2[C@@H]3C(=O)C[C@@H]4CC(O)CC[C@]4(C)C3CC[C@@]21C (stereo partly drawn),,,inactive
CSC1CC2C(CC1(C)SC)C2(C)C (stereo not drawn),> 155 µM,> 155 µM,
N#Cc1sc2nc3c(c(-c4ccccc4)c2c1N)CCCC3,,,inactive
COc1cc2c(cc1OC)C(=O)/C(=C/c1ccccc1)C2,> 200 µM,151 µM,
C/C(=N/c1[nH]c(=O)cc2c1C(=O)CC2)N(C)C,> 200 µM,> 200 µM,
COC1/C=C\OC2(C)Oc3c(C)c(O)c4c(O)c(c(/C=N\NC(=O)CC(=O)N/N=C/c5c6c(O)c7c(O)c(C)c8c(c7c5O)C(=O)C(C)(O/C=C/C(OC)C(C)C(OC(C)=O)C(C)C(O)C(C)C(O)C(C)/C=C/C=C(C)C(=O)N6)O8)c(O)c4c3C2=O)NC(=O)/C(C)=C\C=C/C(C)C(O)C(C)C(O)C(C)C(OC(C)=O)C1C (stereo not drawn),> 115 µM,87.1 µM,
Cc1cc2c(C(C)C)c(O)c(O)c(C=Nc3ccccc3)c2c(O)c1-c1c(C)cc2c(C(C)C)c(O)c(O)c(C=Nc3ccccc3)c2c1O,0.55 µM,0.562 µM,
CCN1C[C@]2(C)CC[C@H](OCc3ccccc3)C34C5C[C@@H]6CC[C@](O)(C(C[C@@H]32)C14)C5[C@H]6OCc1ccccc1 (stereo partly drawn),> 200 µM,> 100 µM,
CC1=C(/C(C)=C\C(=O)O)CC2C(C)C(=O)CO[C@H]2C1 (stereo partly drawn),,,inactive
O=S(=O)(O)c1cc(Cl)c(O)c2ncc(Cl)cc12,> 200 µM,42.7 µM,
Cc1nc(C)c2c(n1)Oc1ccc3ccccc3c1C2,> 49 µM,> 49 µM,
Cc1ccc(NC(=O)C2C(=O)N(c3ccc(C)c(C)c3)C(=O)/C2=N/O)cc1C (stereo not drawn),> 19.1 µM,> 19.1 µM,
N#CC1CC(c2ccccc2)=NC1c1ccccc1 (stereo not drawn),> 29.5 µM,> 29.5 µM,
CCOC(=O)c1c(-c2ccc(OC)cc2)c(C#N)c(=S)n(C2OC(COC(C)=O)C(OC(C)=O)C(OC(C)=O)C2OC(C)=O)c1C (stereo not drawn),> 200 µM,42.7 µM and 33.9 µM,

SMILES,EC50,IC50,outcome
O=C(O)CCC(=O)Nc1ccccc1,> 200 µM,> 200 µM,
OCC1=CC(NC2CC(CO)C(O)C(O)C2O)C(O)C(O)C1O (stereo not drawn),,,inactive
CC1(C)OC(COCCOCCCCCO)C(COCCOCCCCCO)O1 (stereo not drawn),,,inactive
CC1(C)CCCCCCCCCC(C)(CCCCCCCCCCCCO)C1=O (stereo not drawn),> 200 µM,18.6 µM,
Cc1cc2c(c(=O)[nH]1)C(=O)NC2=O,> 813 µM,468 µM,
OC[C@@H]1C(O)[C@H](O)[C@H]2C(O)CCN12 (stereo partly drawn),> 1320 µM,> 1320 µM,
CCCCOC(=O)NC(Nc1ccc(S(=O)(=O)Nc2ncccn2)cc1)(C(F)(F)F)C(F)(F)F,> 200 µM,> 200 µM,
COc1ccccc1-n1c(=S)n(-c2ccccc2C)c2nc3ccccc3nc1/c2=N\Nc1ccccn1,> 200 µM,> 200 µM,
O=C(N/N=C(/c1nc2ccc(Cl)cc2[nH]c1=O)C(O)c1ccc(Cl)cc1Cl)c1ccncc1 (stereo not drawn),> 501 µM,162 µM,
CC1=C(Br)CC23C(C1)OC(Br)(C=CC2(C)O)C3(C)C (stereo not drawn) (tested in a mixture with another compound),,,inactive
CCCCCCCCCCn1cccc1/C=C/c1ccc(/C=C/c2cccn2CCCCCCCCCC)cc1,,,inactive
Cc1[nH]c2c(ccc3c2ccc2c(=O)c(Cl)c(C)[nH]c23)c(=O)c1Cl,> 200 µM,> 200 µM,
C1=C(N2CCOCC2)N(c2ccccc2)c2ccccc2N=C1N1CCCC1,,,inactive
Cc1ccc(-n2cc(-c3ccc(Cl)cc3)c(C#N)c2N)cc1,> 200 µM,22.4 µM,
O=C(OCc1ccccc1)N1CC(O)C2OC3OC4(CCCCC4)OC3C21 (stereo not drawn),> 200 µM,170 µM,
CC(=O)NS(=O)(=O)c1ccc(NC(=O)c2ccccc2SSc2ccccc2[N+](=O)[O-])cc1,8.91 µM,30.9 µM,
CCn1c(=O)c(N=O)c(N)n(CC(C)C)c1=O,> 200 µM,174 µM,
COc1ccc(C(C(N)=O)N2CCOCC2)cc1 (stereo not drawn),129 µM,> 200 µM,
COc1ccc(C2CC(c3c(O)ccc4ccccc34)=NN2)cc1OC (stereo not drawn),> 200 µM,5.5 µM,
